This is an account of results in ChEMBL document CHEMBL4359907, “Scalable and cost-effective tosylation-mediated synthesis of antifungal and fungal diagnostic 6″-Modified amphiphilic kanamycins” (Eur J Med Chem, 2019).

Activity calls are given as the source filed them. No cut-off for these calls is given here.

Assay [1] deals with Rhodotorula mucilaginosa. In words: Antifungal activity against Rhodotorula pilimanae ATCC 26423 incubated for 24 to 36 hrs by two fold dilution method. Format: functional.
Assay [2] has as its system Fusarium graminearum. In words: Antifungal activity against Fusarium graminearum B4-5A incubated for 24 to 36 hrs by two fold dilution method. Format: functional.
Assay [3] has as its system Escherichia coli. In words: Induction of membrane permeabilization in Escherichia coli ATCC 25922 at MIC incubated for 5 mins by phase contrast microscopic method. Format: functional, organism-based.
The subject of assay [4] is Candida albicans. In words: Induction of membrane permeabilization in azole-susceptible Candida albicans MYA2876 at 1/4 times MIC incubated for 5 mins by phase contrast microscopic method. Format: functional, organism-based.
Assay [5] relates to Cryptococcus neoformans. In words: Antifungal activity against Cryptococcus neoformans H99 incubated for 24 to 36 hrs by two fold dilution method. Format: functional.
In assay [6] the test system is Staphylococcus aureus. In words: Antibacterial activity against methicillin-resistant Staphylococcus aureus ATCC 43300 incubated for 18 hrs by two fold dilution method. Format: functional. The settings on record: ATCC 43300, 18 h.
Assay [7] has as its system Staphylococcus aureus. In words: Antibacterial activity against Staphylococcus aureus ATCC 25923 incubated for 18 hrs by two fold dilution method. The settings on record: ATCC 25923, 18 h. Format: functional.
The subject of assay [8] is Candida albicans. In words: Antifungal activity against azole-resistant Candida albicans 64124 incubated for 24 to 36 hrs by two fold dilution method. Format: functional.
In assay [9] the test system is Candida albicans. In words: Induction of membrane permeabilization in azole-resistant Candida albicans 64124 at 1/4 times MIC incubated for 5 mins by phase contrast microscopic method. The class given is functional, organism-based.
Assay [10] has as its system Escherichia coli. In words: Antibacterial activity against Escherichia coli ATCC 25922 incubated for 18 hrs by two fold dilution method. The class given is functional. The settings on record: ATCC 25922, 18 h.
For assay [11], the system named is Staphylococcus aureus. In words: Induction of membrane permeabilization in Staphylococcus aureus at 1/2 times MIC incubated for 5 mins by phase contrast microscopic method. The class given is functional, organism-based.
Assay [12] has as its system Staphylococcus aureus. In words: Antibacterial activity against methicillin-resistant Staphylococcus aureus ATCC 33591 incubated for 18 hrs by two fold dilution method. Format: functional. Particulars: ATCC 33591, 18 h.
In assay [13] the test system is Candida albicans. In words: Antifungal activity against azole-susceptible Candida albicans MYA2876 incubated for 24 to 36 hrs by two fold dilution method. The class given is functional.
The test system of assay [14] is Escherichia coli. In words: Induction of membrane permeabilization in Escherichia coli ATCC 25922 at MIC incubated for 60 mins by phase contrast microscopic method. The class given is functional, organism-based.
The test system of assay [15] is Staphylococcus aureus. In words: Induction of membrane permeabilization in Staphylococcus aureus at 1/2 times MIC incubated for 60 mins by phase contrast microscopic method. The class given is functional, organism-based.
For assay [16], the system named is Cryptococcus neoformans. In words: Antifungal activity against Cryptococcus neoformans VR-54 incubated for 24 to 36 hrs by two fold dilution method. The class given is functional.
Assay [17] relates to HeLa. In words: Cytotoxicity against human HeLa cells assessed as reduction in cell viability incubated for 24 hrs by MTT assay. Format: cell-based.
Assay [18] concerns Candida albicans. In words: Antifungal activity against Candida albicans B-311 incubated for 24 to 36 hrs by two fold dilution method. Format: functional.
For assay [19], the system named is Candida tropicalis. In words: Antifungal activity against Candida tropicalis 95-41 incubated for 24 to 36 hrs by two fold dilution method. Format: functional.
Assay [20] has as its system Diutina rugosa. In words: Antifungal activity against Candida rugosa 95-967 incubated for 24 to 36 hrs by two fold dilution method. The class given is functional.
For assay [21], the system named is Candida parapsilosis. In words: Antifungal activity against azole-resistant Candida parapsilosis Cas08-0490 incubated for 24 to 36 hrs by two fold dilution method. Particulars: Lodderomyces parapsilosis. The class given is functional.

By MIC is commonly meant the lowest concentration found to suppress growth. Lower therefore signals inhibition by little substance. Broadly, the IC50 is the point on the concentration scale where inhibition reaches its midpoint. Regarding `Cl.Cl.Cl.Cl.NC[C@H]1O[C@H](O[C@H]2[C@H](O)[C@@H](O[C@H]3O[C@H](CNC(=O)c4ccccc4-c4c5ccc(=O)cc-5oc5cc(O)ccc45)[C@@H](O)[C@H](N)[C@H]3O)[C@H](N)C[C@@H]2N)[C@H](O)[C@@H](O)[C@@H]1O`, the MIC in [1] is 32 µg/mL; in assay [2], 32 µg/mL; in assay [5], 64 µg/mL; in [6], above 256 µg/mL; in assay [7], 64 µg/mL; in assay [8] it was 128 µg/mL. In addition, the MIC in assay [10] was 32 µg/mL; in assay [12], above 256 µg/mL; in [13], 256 µg/mL; in assay [16], 64 µg/mL. The outcome in assay [3] and in assay [11] was inactive. The result in [4], in [9], in assay [14] and in assay [15] was Active. In assay [17], the IC50 is above 100 µg/mL.
For the compound `CCCCCCCCCCCCSC[C@H]1O[C@H](O[C@@H]2[C@@H](O)[C@H](O[C@H]3O[C@H](CN)[C@@H](O)[C@H](O)[C@H]3O)[C@@H](N)C[C@H]2N)[C@H](O)[C@@H](N)[C@@H]1O.Cl.Cl.Cl.Cl`, the MIC came out at 2 µg/mL in assay [1]; 4 µg/mL in assay [2]; 32 µg/mL in [18]; 32 µg/mL in [19]; 16 µg/mL in assay [20]; 32 µg/mL in [21]. Also, the MIC stood at 2 µg/mL in [5]; 16 µg/mL in assay [6]; 32 µg/mL in assay [7]; 16 µg/mL in assay [8]; 16 µg/mL in assay [10]; 32 µg/mL in [12]. Besides, the figures for the MIC in [13] and in assay [16] were 16 µg/mL and 2 µg/mL, respectively. The IC50 in assay [17] was above 100 µg/mL.
Consider `CCCCCCCCCCCCCCCCSC[C@H]1O[C@H](O[C@@H]2[C@@H](O)[C@H](O[C@H]3O[C@H](CN)[C@@H](O)[C@H](O)[C@H]3O)[C@@H](N)C[C@H]2N)[C@H](O)[C@@H](N)[C@@H]1O.Cl.Cl.Cl.Cl`, for which the MIC in assay [1] was determined as 2 µg/mL; in assay [2], 2 µg/mL; in assay [18], 4 µg/mL; in [19] it was 4 µg/mL; in assay [20], 4 µg/mL; in [21] it was 4 µg/mL. In addition, the minimum inhibitory concentration (MIC) in [5] was 2 µg/mL; in assay [6], 16 µg/mL; in assay [7], 16 µg/mL; in assay [8] it was 4 µg/mL; in assay [10], 32 µg/mL; in assay [12], 32 µg/mL. Moreover, the MIC in assay [13] is 4 µg/mL; in assay [16] it was 2 µg/mL. Also, the IC50 in [17] turned out to be 37.7 µg/mL.
Regarding `CCCCCCCCCCCCCCNC[C@H]1O[C@H](O[C@@H]2[C@@H](O)[C@H](O[C@H]3O[C@H](CN)[C@@H](O)[C@H](O)[C@H]3O)[C@@H](N)C[C@H]2N)[C@H](O)[C@@H](N)[C@@H]1O.Cl.Cl.Cl.Cl.Cl`, the MIC in assay [1] amounted to 2 µg/mL; in assay [2], 2 µg/mL; in [18], 8 µg/mL; in assay [19] it was 4 µg/mL; in assay [20] it was 4 µg/mL; in assay [21], 4 µg/mL. Also, the MIC in assay [5] is 2 µg/mL; in assay [6], 16 µg/mL; in assay [7] it was 16 µg/mL; in [8], 4 µg/mL; in [10] it was 32 µg/mL; in assay [12], 16 µg/mL. The values for the MIC in [13] and in assay [16] were 8 µg/mL and 2 µg/mL, respectively. The IC50 in [17] stood at 60.8 µg/mL.
